Measurements taken from PubChem BioAssay (NCI).
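Step 1: Grow cells in 96-well plates. Step 2: Expose to compound for 48 hours at 5 concentrations. Step 3: Interpolate endpoints linearly; if unreached, use highest concentration. GI50 marks 50% less growth. TGI: total growth inhibition.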

Tests used:
Assay in all cases: NCI tumour cell line growth inhibition, 48 h
K-562 leukemia = system: K-562 leukemia
CAKI-1 renal = system: CAKI-1 renal
OVCAR-5 ovarian = system: OVCAR-5 ovarian
HT29 colon = system: HT29 colon
SK-MEL-28 melanoma = system: SK-MEL-28 melanoma
A549 NSCLC = system: A549 NSCLC
LOX IMVI melanoma = system: LOX IMVI melanoma
SK-MEL-5 melanoma = system: SK-MEL-5 melanoma
HCC-2998 colon = system: HCC-2998 colon
U251 CNS = system: U251 CNS
SW-620 colon = system: SW-620 colon
DU-145 prostate = system: DU-145 prostate
HCT-15 colon = system: HCT-15 colon
SK-MEL-2 melanoma = system: SK-MEL-2 melanoma
UACC-62 melanoma = system: UACC-62 melanoma
MCF7 breast = system: MCF7 breast
MDA-MB-231 breast = system: MDA-MB-231 breast
MOLT-4 leukemia = system: MOLT-4 leukemia
RPMI-8226 leukemia = system: RPMI-8226 leukemia
MDA-MB-435 = system: MDA-MB-435
OVCAR-8 ovarian = system: OVCAR-8 ovarian
SF-295 CNS = system: SF-295 CNS
OVCAR-4 ovarian = system: OVCAR-4 ovarian
TK-10 renal = system: TK-10 renal
NCI-H460 lung = system: NCI-H460 lung
SNB-75 CNS = system: SNB-75 CNS
IGROV1 ovarian = system: IGROV1 ovarian
KM12 colon = system: KM12 colon
A498 renal = system: A498 renal
ACHN renal = system: ACHN renal
RXF 393 renal = system: RXF 393 renal
HOP-62 NSCLC = system: HOP-62 NSCLC
NCI-H23 lung = system: NCI-H23 lung
NCI-H226 lung = system: NCI-H226 lung
SF-539 CNS = system: SF-539 CNS
M14 melanoma = system: M14 melanoma
NCI/ADR-RES ovarian = system: NCI/ADR-RES ovarian
T-47D breast = system: T-47D breast
SF-268 CNS = system: SF-268 CNS
UO-31 renal = system: UO-31 renal
BT-549 breast = system: BT-549 breast
SR leukemia = system: SR leukemia
SNB-19 CNS = system: SNB-19 CNS
HCT-116 colon = system: HCT-116 colon
UACC-257 melanoma = system: UACC-257 melanoma
786-0 renal = system: 786-0 renal
PC-3 prostate = system: PC-3 prostate
COLO 205 colon = system: COLO 205 colon
EKVX NSCLC = system: EKVX NSCLC
SK-OV-3 ovarian = system: SK-OV-3 ovarian
OVCAR-3 ovarian = system: OVCAR-3 ovarian
HL-60(TB) leukemia = system: HL-60(TB) leukemia
CCRF-CEM leukemia = system: CCRF-CEM leukemia
HS 578T breast = system: HS 578T breast
NCI-H522 lung = system: NCI-H522 lung
HOP-92 NSCLC = system: HOP-92 NSCLC
SN12C renal = system: SN12C renal

SMILES: O=C1[C@H](O)[C@@H]2C(O)O[C@H]3[C@@H]2N1C[C@H]3[Si](c1ccccc1)(c1ccccc1)c1ccccc1 (stereo not given in full)
- TGI (K-562 leukemia): > 100 µM
- TGI (CAKI-1 renal): > 100 µM
- TGI (OVCAR-5 ovarian): > 100 µM
- TGI (HT29 colon): > 100 µM
- TGI (SK-MEL-28 melanoma): > 100 µM
- TGI (A549 NSCLC): > 100 µM
- TGI (LOX IMVI melanoma): > 100 µM
- TGI (SK-MEL-5 melanoma): > 100 µM
- TGI (HCC-2998 colon): > 100 µM
- TGI (U251 CNS): > 100 µM
- TGI (SW-620 colon): > 100 µM
- TGI (DU-145 prostate): > 100 µM
- TGI (HCT-15 colon): > 100 µM
- TGI (SK-MEL-2 melanoma): > 100 µM
- TGI (UACC-62 melanoma): > 100 µM
- TGI (MCF7 breast): > 100 µM
- TGI (MDA-MB-231 breast): > 100 µM
- TGI (MOLT-4 leukemia): > 100 µM
- TGI (RPMI-8226 leukemia): > 100 µM
- TGI (MDA-MB-435): > 100 µM
- TGI (OVCAR-8 ovarian): > 100 µM
- TGI (SF-295 CNS): > 100 µM
- TGI (OVCAR-4 ovarian): > 100 µM
- TGI (TK-10 renal): > 100 µM
- TGI (NCI-H460 lung): > 100 µM
- TGI (SNB-75 CNS): 69.4 µM
- TGI (IGROV1 ovarian): > 100 µM
- TGI (KM12 colon): > 100 µM
- TGI (A498 renal): > 100 µM
- TGI (ACHN renal): > 100 µM
- TGI (RXF 393 renal): > 100 µM
- TGI (HOP-62 NSCLC): > 100 µM
- TGI (NCI-H23 lung): > 100 µM
- TGI (NCI-H226 lung): > 100 µM
- TGI (SF-539 CNS): > 100 µM
- TGI (M14 melanoma): > 100 µM
- TGI (NCI/ADR-RES ovarian): > 100 µM
- TGI (T-47D breast): > 100 µM
- TGI (SF-268 CNS): > 100 µM
- TGI (UO-31 renal): > 100 µM
- TGI (BT-549 breast): > 100 µM
- TGI (SR leukemia): > 100 µM
- TGI (SNB-19 CNS): > 100 µM
- TGI (HCT-116 colon): > 100 µM
- TGI (UACC-257 melanoma): > 100 µM
- TGI (786-0 renal): > 100 µM
- TGI (PC-3 prostate): > 100 µM
- TGI (COLO 205 colon): > 100 µM
- TGI (EKVX NSCLC): > 100 µM
- TGI (SK-OV-3 ovarian): > 100 µM
- TGI (OVCAR-3 ovarian): > 100 µM

SMILES: COc1cc(/C=C/C(=O)c2c(C)nc3ccccc3c2/C=C/c2ccccc2)cc(OC)c1OC
- GI50 (K-562 leukemia): 0.827 µM
- TGI (K-562 leukemia): > 100 µM
- GI50 (HT29 colon): 1.87 µM
- TGI (HT29 colon): > 100 µM
- GI50 (HL-60(TB) leukemia): 1.63 µM
- TGI (HL-60(TB) leukemia): 6 µM
- GI50 (LOX IMVI melanoma): 1.42 µM
- TGI (LOX IMVI melanoma): 2.78 µM
- GI50 (CCRF-CEM leukemia): 2.09 µM
- TGI (CCRF-CEM leukemia): > 100 µM
- GI50 (MDA-MB-231 breast): 2.15 µM
- TGI (MDA-MB-231 breast): > 100 µM
- GI50 (MOLT-4 leukemia): 2.21 µM
- TGI (MOLT-4 leukemia): 8.61 µM
- GI50 (RPMI-8226 leukemia): 2.21 µM
- TGI (RPMI-8226 leukemia): > 100 µM
- GI50 (OVCAR-8 ovarian): 1.78 µM
- TGI (OVCAR-8 ovarian): > 100 µM
- GI50 (NCI-H460 lung): 1.86 µM
- TGI (NCI-H460 lung): 4.96 µM
- GI50 (HS 578T breast): 4.2 µM
- TGI (HS 578T breast): > 100 µM
- GI50 (SR leukemia): 1.14 µM
- TGI (SR leukemia): 6.54 µM
- GI50 (HCT-116 colon): 0.514 µM
- TGI (HCT-116 colon): 1.91 µM

SMILES: Clc1ccc(-c2cn3ccnc3c(-c3ccc(Cl)cc3)n2)cc1
- GI50 (K-562 leukemia): 2.25 µM
- TGI (K-562 leukemia): > 100 µM
- GI50 (CAKI-1 renal): 4.23 µM
- TGI (CAKI-1 renal): 46 µM
- GI50 (OVCAR-5 ovarian): 32.9 µM
- TGI (OVCAR-5 ovarian): > 100 µM
- GI50 (HT29 colon): 12.5 µM
- TGI (HT29 colon): > 100 µM
- GI50 (HL-60(TB) leukemia): 0.954 µM
- TGI (HL-60(TB) leukemia): 19 µM
- GI50 (NCI-H522 lung): > 100 µM
- TGI (NCI-H522 lung): > 100 µM
- GI50 (SK-MEL-28 melanoma): > 100 µM
- TGI (SK-MEL-28 melanoma): > 100 µM
- GI50 (A549 NSCLC): 8.31 µM
- TGI (A549 NSCLC): > 100 µM
- GI50 (LOX IMVI melanoma): 12.7 µM
- TGI (LOX IMVI melanoma): 31.5 µM
- GI50 (SK-MEL-5 melanoma): 16.6 µM
- TGI (SK-MEL-5 melanoma): 43.5 µM
- GI50 (U251 CNS): 12.9 µM
- TGI (U251 CNS): 57.4 µM
- GI50 (SW-620 colon): 7.42 µM
- TGI (SW-620 colon): > 100 µM
- GI50 (DU-145 prostate): 25.3 µM
- TGI (DU-145 prostate): > 100 µM
- GI50 (HCT-15 colon): 3.38 µM
- TGI (HCT-15 colon): 30.9 µM
- GI50 (SK-MEL-2 melanoma): 61.9 µM
- TGI (SK-MEL-2 melanoma): > 100 µM
- GI50 (UACC-62 melanoma): 36.2 µM
- TGI (UACC-62 melanoma): > 100 µM
- GI50 (MCF7 breast): 11.4 µM
- TGI (MCF7 breast): > 100 µM
- GI50 (MDA-MB-231 breast): 7.04 µM
- TGI (MDA-MB-231 breast): 47 µM
- GI50 (MOLT-4 leukemia): 0.462 µM
- TGI (MOLT-4 leukemia): > 100 µM
- GI50 (RPMI-8226 leukemia): 10.1 µM
- TGI (RPMI-8226 leukemia): > 100 µM
- GI50 (MDA-MB-435): 2.79 µM
- TGI (MDA-MB-435): 8.07 µM
- GI50 (OVCAR-8 ovarian): 16 µM
- TGI (OVCAR-8 ovarian): > 100 µM
- GI50 (SF-295 CNS): 11.1 µM
- TGI (SF-295 CNS): 91.7 µM
- GI50 (TK-10 renal): 22.6 µM
- TGI (TK-10 renal): 73.5 µM
- GI50 (NCI-H460 lung): 19.9 µM
- TGI (NCI-H460 lung): > 100 µM
- GI50 (SNB-75 CNS): > 100 µM
- TGI (SNB-75 CNS): > 100 µM
- GI50 (IGROV1 ovarian): 21 µM
- TGI (IGROV1 ovarian): > 100 µM
- GI50 (HS 578T breast): 26.3 µM
- TGI (HS 578T breast): 92.4 µM
- GI50 (KM12 colon): 5.33 µM
- TGI (KM12 colon): 37.9 µM
- GI50 (A498 renal): 30.7 µM
- TGI (A498 renal): 77.2 µM
- GI50 (ACHN renal): 13 µM
- TGI (ACHN renal): 52.3 µM
- GI50 (RXF 393 renal): 3.57 µM
- TGI (RXF 393 renal): > 100 µM
- GI50 (HOP-62 NSCLC): 31.4 µM
- TGI (HOP-62 NSCLC): > 100 µM
- GI50 (NCI-H23 lung): 24.3 µM
- TGI (NCI-H23 lung): 80.1 µM
- GI50 (NCI-H226 lung): 40.8 µM
- TGI (NCI-H226 lung): > 100 µM
- GI50 (SF-539 CNS): 26.2 µM
- TGI (SF-539 CNS): > 100 µM
- GI50 (HOP-92 NSCLC): 15.1 µM
- TGI (HOP-92 NSCLC): > 100 µM
- GI50 (M14 melanoma): 13.7 µM
- TGI (M14 melanoma): 84.7 µM
- GI50 (NCI/ADR-RES ovarian): 11.2 µM
- TGI (NCI/ADR-RES ovarian): 47.5 µM
- GI50 (SN12C renal): 16.7 µM
- TGI (SN12C renal): 95.1 µM
- GI50 (SF-268 CNS): 15.4 µM
- TGI (SF-268 CNS): > 100 µM
- GI50 (BT-549 breast): 46 µM
- TGI (BT-549 breast): > 100 µM
- TGI (SR leukemia): 4.02 µM
- GI50 (SNB-19 CNS): 45.8 µM
- TGI (SNB-19 CNS): > 100 µM
- GI50 (HCT-116 colon): 12.2 µM
- TGI (HCT-116 colon): > 100 µM
- GI50 (UACC-257 melanoma): 2.58 µM
- TGI (UACC-257 melanoma): 33.9 µM
- GI50 (786-0 renal): 29.5 µM
- TGI (786-0 renal): > 100 µM
- GI50 (PC-3 prostate): 19.6 µM
- TGI (PC-3 prostate): > 100 µM
- GI50 (COLO 205 colon): 27.6 µM
- TGI (COLO 205 colon): > 100 µM
- GI50 (EKVX NSCLC): 31.9 µM
- TGI (EKVX NSCLC): > 100 µM
- GI50 (SK-OV-3 ovarian): 82.8 µM
- TGI (SK-OV-3 ovarian): > 100 µM
- GI50 (OVCAR-3 ovarian): 16.8 µM
- TGI (OVCAR-3 ovarian): > 100 µM
